Patent publication US10538497B2, “Compounds as indoleamine 2,3-dioxygenase inhibitors” (Merck Sharp & Dohme Corp., priority 2015, dated 2020)
pIC50: −log10 of the molar value.

Tests used:
IDO1 [1] = biological target: T1, IDO1 (Homo sapiens (Human), UniProt P14902); test: IDO1 Cellular Assay in Frozen HEK293 Cells Transiently Transfected with Human IDO1; format: cell-based; conditions: read-out: IDO1 HEK293 Cell Assay, IC50
IDO1 [2] = biological target: T1, IDO1; test: IDO1 Cellular Assay in Hela Cells Stimulated with IFNγ; format: cell-based; conditions: Hela cells stimulated with IFNγ 100 ng/mL; read-out: IDO1 HELA Cell Assay, IC50
IDO1 [3] = biological target: T1, IDO1; test: IDO1 Human Whole Blood Assay; format: cell-based; conditions: LPS and IFNγ 100 ng/mL, kynurenine by LC/MS/MS
Description: IDO1 Human Whole Blood Assay
LPS and IFNγ was prepared in RPMI to a 10× of final conc. (1000 ng/mL), final concentration is 100 ng/mL.
Human whole blood was drawn in sodium heparin coated tubes from healthy internal donors. Two hundred fourty μL of blood was transferred to each of the wells of a v-bottom 96 well plate. Thirty μL of compound was transferred from intermediate dilution plate, and incubated for 15 min. […] from stimulants was then transferred to blood and mixed thoroughly. Plate was covered with breathable membrane and incubated at 37° C. for overnight (18 h).
On day 2 isotope labeled standard of kunurenine and tryptophan was made in water at 10× concentration and 30 μL was added to the blood at 3 μM final concentration. The assay plates were centrifuged at 300×G for 10 min with no brake to separate plasma from red blood cells. Sixty μL of plasma samples was removed without disturbing red blood cells. Plasma was diluted with RPMI in 1:1 ratio and proteins were precipitated out with two volume of Acetonitrile. The plates was centrifuged at 4000×G for 60 min. Twenty μL of supernatant was carefully transferred to a 384 well plate contain 40 μL of 0.1% formic acid in water and analysed by LC/MS/MS.
LC/MS/MS analyses were performed using Thermo Fisher's LX4-TSQ Quantum Ultra system. This system consists of four Agilent binary high-performance liquid chromatography (HPLC) pumps and a TSQ Quantum Ultra triple quadrupole MS/MS instrument. For each sample, 5 μL were injected onto an Atlantis T3 column column (2.1 mm×150 mm, 3 μm particle size) from Waters. The mobile phase gradient pumped at 0.8 mL/min was used to elute the analytes from the column at 25° C. The elution started at 0% B increasing linearly to 25% B at 6.5 min, holding at 25% for 1 min, re-equilibrating to 10 min. Mobile phase A consisted of 0.1% formic acid in water. Mobile phase B consisted of 0.1% of formic acid in acetonitrile. Data was acquired in positive mode using a HESI interface. The operational parameters for the TSQ Quantum Ultra instrument were a spray voltage of 4000 V, capillary temperature of 380° C., vaporizer temperature 400° C., shealth gas 60 arbitrary units, Aux gas 20 arbitrary units, tube lens 85 and collision gas 1.2 mTorr. SRM chromatograms of kynurenine (Q1: 209.2>Q3:94.0) and internal standard (Q1: 215.3>Q3:98.2) were collected for 90 sec. The peak area was integrated by Xcalibur Quan software. The ratios between the kynurenine generated in the reaction and 2D6-Kynurenine spiked-in internal standard were used to generate percentage inhibition and IC50 values. Compounds were titrated and IC50's were calculated by 4 parameter sigmoidal curve fitting formula.

IDO1 [4] = biological target: T1, IDO1; test: IDO1 Enzyme Assay; conditions: HIS-tagged recombinant IDO1, 40 nM; for pIC50: read-out: IDO1 Enzyme Assay, IC50; for IC50: IDO1 Enzyme Assay, IC50, nM
[5] = HEK293 cells transiently transfected with human IDO1

T1 sequence (P14902 whole entry): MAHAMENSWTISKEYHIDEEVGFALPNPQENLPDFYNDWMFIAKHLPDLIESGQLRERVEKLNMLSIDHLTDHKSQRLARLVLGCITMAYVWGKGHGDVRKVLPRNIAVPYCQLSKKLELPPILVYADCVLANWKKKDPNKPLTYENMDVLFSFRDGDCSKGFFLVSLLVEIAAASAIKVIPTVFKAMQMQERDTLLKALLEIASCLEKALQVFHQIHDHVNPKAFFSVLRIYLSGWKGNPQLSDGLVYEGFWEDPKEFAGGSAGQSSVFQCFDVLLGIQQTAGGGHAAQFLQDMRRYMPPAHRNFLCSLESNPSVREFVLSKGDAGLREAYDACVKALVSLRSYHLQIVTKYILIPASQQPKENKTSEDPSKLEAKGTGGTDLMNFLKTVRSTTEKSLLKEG

Structure (SMILES)	pIC50 (IDO1 [1]; [5])	pIC50 (IDO1 [2])	pIC50 (IDO1 [3])	pIC50 (IDO1 [4])	IC50 (IDO1 [4])	pIC50 (IDO1 [1])
Cc1cc(CSc2nonc2/C(=N/O)Nc2ccc(F)c(Br)c2)[nH]c(=O)c1 [Example 102, N-(3-bromo-4-fluorophenyl)-N′-hydroxy-4-{[(4-methyl-6-oxo-1,6-dihydropyridin-2-yl)methyl]sulfanyl}-1,2,5-oxadiazole-3-carboximidamide]	7.35	7.09	< 5.00	7.14	–	–
N#Cc1cc(N/C(=N\O)c2nonc2SC[C@H]2CCC(=O)N2)ccc1F [Example 148, N-(3-cyano-4-fluorophenyl)-N′-hydroxy-4-({[(2R)-5-oxopyrrolidin-2-yl]methyl}sulfanyl)-1,2,5-oxadiazole-3-carboximidamide]	6.68	6.52	5.75	6.76	–	–
O=C1CC[C@@H](CSc2nonc2/C(=N/O)Nc2ccc(F)c(Br)c2)N1 [Example 84, N-(3-bromo-4-fluorophenvl)-N′-hydroxy-4-({[(2S)-5-oxopyrrolidin-2-yl]methyl}sulfanyl)-1,2,5-oxadiazole-3-carboximidamide]	7.48	7.57	6.73	7.43	–	–
N#Cc1cc(N/C(=N\O)c2nonc2SCCNC(=O)C2CC2)ccc1F [Example 40, N-(2-((4-(N-(3-cyano-4-fluorophenyl)-N′-hydroxycarbamimidoyl)-1,2,5-oxadiazol-3-yl)thio)ethyl)cyclopropanecarboxamide]	7.04	6.74	5.78	7.12	–	–
COC(=O)CNP(=O)(CSc1nonc1/C(=N/O)Nc1ccc(F)c(Br)c1)NCC(=O)OC [Example 120, methyl 6-[({4-[N-(3-bromo-4-fluorophenyl)-N′-hydroxycarbamimidoyl]-1,2,5-oxadiazol-3-yl}sulfanyl)methyl]-3-oxo-2-oxa-5,7-diaza-6-phosphanonan-9-oate 6-oxide]	7.87	7.55	6.81	7.85	–	–
CNC(=O)NCCSc1nonc1/C(=N/O)Nc1ccc(F)c(Br)c1 [Example 45, N-(3-bromo-4-fluorophenyl)-N′-hydroxy-4-((2-(3-methylureido)ethyl)thio)-1,2,5-oxadiazole-3-carboximidamide]	–	7.32	6.39	7.65	–	7.61
OC[C@@H](O)CSc1nonc1/C(=N/O)Nc1ccc(F)c(C(F)F)c1 [Example 168, N-[3-(difluoromethyl)-4-fluorophenyl]-4-{[(2R)-2,3-dihydroxypropyl]sulfanyl}-N′-hydroxy-1,2,5-oxadiazole-3-carboximidamide]	7.26	6.96	6.32	7.16	–	–
Cn1c(CSc2nonc2/C(=N/O)Nc2ccc(F)c(Br)c2)n[nH]c1=O [Example 98, N-(3-bromo-4-fluorophenyl)-N′-hydroxy-4-{[(4-methyl-5-oxo-4,5-dihydro-1H-1,2,4-triazol-3-yl)methyl]sulfanyl}-1,2,5-oxadiazole-3-carboximidamide]	7.08	7.24	6.20	7.42	–	–
O=C(CSc1nonc1/C(=N/O)Nc1ccc(F)c(Br)c1)NC(CO)CO [Example 145, 2-({4-[N-(3-bromo-4-fluorophenyl)-N′-hydroxycarbamimidoyl]-1,2,5-oxadiazol-3-yl}sulfanyl)-N-[2-hydroxy-1-(hydroxymethyl)ethyl]acetamide]	7.11	7.17	5.90	7.29	–	–
O/N=C(\Nc1ccc(F)c(Br)c1)c1nonc1SCc1nnc[nH]1 [Example 191, N-(3-bromo-4-fluorophenyl)-N′-hydroxy-4-[(4H-1,2,4-triazol-3-ylmethyl)sulfanyl]-1,2,5-oxadiazole-3-carboximidamide]	8.00	7.65	6.04	7.36	–	–
CC(C)(O)C(O)CSc1nonc1/C(=N/O)Nc1ccc(F)c(Cl)c1 (single isomer, unassigned) [Example 190, N-(3-chloro-4-fluorophenyl)-4-[(2,3-dihydroxy-3-methylbutyl)sulfanyl]-N′-hydroxy-1,2,5-oxadiazole-3-carboximidamide]	7.25	6.96	5.86	–	79.1 nM	–
N#Cc1cc(N/C(=N\O)c2nonc2SCCNS(=O)(=O)C2CC2)ccc1F [Example 178, N-(3-cyano-4-fluorophenyl)-4-({2-[(cyclopropylsulfonyl)amino]ethyl}sulfanyl)-N′-hydroxy-1,2,5-oxadiazole-3-carboximidamide]	7.45	7.24	5.97	7.22	–	–
CC(C)(O)C(O)CSc1nonc1/C(=N/O)Nc1ccc(F)c(Cl)c1 (single isomer, unassigned) [Example 189, N-(3-chloro-4-fluorophenyl)-4-[(2,3-dihydroxy-3-methylbutyl)sulfanyl]-N′-hydroxy-1,2,5-oxadiazole-3-carboximidamide]	7.40	7.18	6.15	–	69.4 nM	–

Second part, led by results:

pIC50 (IDO1 [1]; [5])	pIC50 (IDO1 [2])	pIC50 (IDO1 [3])	pIC50 (IDO1 [4])	IC50 (IDO1 [4])	Structure (SMILES)	pIC50 (IDO1 [1])
7.65	7.75	6.82	7.37	–	CNC(=O)CSc1nonc1/C(=N/O)Nc1ccc(F)c(Br)c1 [Example 41, 2-((4-(N-(3-bromo-4-fluorophenyl)-N′-hydroxycarbamimidoyl)-1,2,5-oxadiazol-3-yl)thio)-N-methylacetamide]	–
6.73	6.49	6.28	6.87	–	N#Cc1cc(N/C(=N\O)c2nonc2SCCNC(=O)CO)ccc1F [Example 182, N-[2-({4-[N-(3-cyano-4-fluorophenyl)-N′-hydroxycarbamimidoyl]-1,2,5-oxadiazol-3-yl}sulfanyl)ethyl]-2-hydroxyacetamide]	–
6.57	6.61	6.42	7.01	–	N#Cc1cc(N/C(=N\O)c2nonc2SC[C@@H](O)CO)ccc1F [Example 140, N-(3-cyano-4-fluorophenyl)-4-{[(2S)-2,3-dihydroxypropyl]sulfanyl}-N′-hydroxy-1,2,5-oxadiazole-3-carboximidamide]	–
7.51	6.92	6.18	6.96	–	CS(=O)(=O)NCCSc1nonc1/C(=N/O)Nc1ccc(F)c(C#N)c1 [Example 171, N-(3-cyano-4-fluorophenyl)-N′-hydroxy-4-({2-[(methylsulfonyl)amino]ethyl}sulfanyl)-1,2,5-oxadiazole-3-carboximidamide]	–
6.43	6.31	5.92	6.81	–	N#Cc1cc(N/C(=N\O)c2nonc2SC[C@H](O)CO)ccc1F [Example 147, N-(3-cyano-4-fluorophenyl)-4-{[(2R)-2,3-dihydroxypropyl]sulfanyl}-N′-hydroxy-1,2,5-oxadiazole-3-carboximidamide]	–
7.18	6.78	6.40	7.06	–	CNC(=O)CSc1nonc1/C(=N/O)Nc1ccc(F)c(C#N)c1 [Example 185, 2-({4-[N-(3-cyano-4-fluorophenyl)-N′-hydroxycarbamimidoyl]-1,2,5-oxadiazol-3-yl}sulfanyl)-N-methylacetamide]	–
